Laboratory results published in ChEMBL document CHEMBL1150047, “New sesquiterpene quinols from a Micronesian sponge, Aka sp” (J Nat Prod, 2003).
Counter-ions that a name gives are not always drawn. The source made the active and inactive calls. The calls are words filed in the database; no cut-off is given here.

Assays:
[1] = target: Cyclin-dependent kinase 4/cyclin D1 (Homo sapiens) (UniProt P11802+P24385); test: Inhibition of CDK4/Cyclin D1 complex formation at 10 ug/mL; format: protein-complex assay
[2] = target: Cyclin-dependent kinase 4/cyclin D1 (Homo sapiens, UniProt P11802); test: Inhibition of CDK4/Cyclin D1 complex formation
Sequence of Cyclin-dependent kinase 4/cyclin D1 (P11802 whole entry): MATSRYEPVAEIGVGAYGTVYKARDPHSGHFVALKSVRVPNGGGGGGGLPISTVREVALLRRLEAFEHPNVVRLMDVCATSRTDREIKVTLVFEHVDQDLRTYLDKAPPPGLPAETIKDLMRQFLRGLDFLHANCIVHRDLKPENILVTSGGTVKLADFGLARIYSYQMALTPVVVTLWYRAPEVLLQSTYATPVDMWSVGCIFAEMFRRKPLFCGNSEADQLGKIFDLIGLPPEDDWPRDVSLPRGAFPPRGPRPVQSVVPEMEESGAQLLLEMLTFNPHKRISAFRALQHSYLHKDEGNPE
Sequence of Cyclin-dependent kinase 4/cyclin D1 (P24385 whole entry, further chain): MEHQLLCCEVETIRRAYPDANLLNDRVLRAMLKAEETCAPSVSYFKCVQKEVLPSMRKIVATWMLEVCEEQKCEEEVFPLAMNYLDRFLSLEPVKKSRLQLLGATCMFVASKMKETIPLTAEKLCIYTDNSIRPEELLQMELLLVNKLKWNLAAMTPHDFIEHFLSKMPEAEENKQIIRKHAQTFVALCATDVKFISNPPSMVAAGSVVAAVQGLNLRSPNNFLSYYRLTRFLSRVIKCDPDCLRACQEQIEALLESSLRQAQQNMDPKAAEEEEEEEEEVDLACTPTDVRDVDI

| SMILES | Activity [1] | IC50 [2] [µM] |
| --- | --- | --- |
| CC1(C)CCC[C@]2(C)[C@@H](Cc3c(O)ccc(O)c3C=O)[C@](C)(O)CC[C@@H]12 | inactive | – |
| COCc1cc(O)c(O)c2c1[C@@]1(C)CC[C@H]3C(C)(C)CCC[C@]3(C)[C@H]1C2 | inactive | – |
| CC(CC[C@@H](C)[C@H]1CC[C@H]2[C@@H]3C[C@H](OS(=O)(=O)O)[C@H]4C[C@H](OS(=O)(=O)O)[C@@H](OS(=O)(=O)O)C[C@]4(C)[C@H]3CC[C@]12C)C(C)(C)C (some centres undefined) [HALISTANOL SULFATE] | – | 12.6 |
| CC1=CC[C@H]2C(C)(C)CCC[C@]2(C)[C@H]1Cc1cc(O)c(O)c(C=O)c1OS(=O)(=O)O [SIPHONODICTYAL C] | – | 19.5 |
